Measured values as given in PubChem BioAssay (NCI).
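Briefly, cells in 96-well plates were exposed to five compound concentrations for 48 h, and endpoints were estimated by linear interpolation. The concentration for full growth arrest is given as TGI.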 Where a SMILES comes first, the peptide text is derived from it. [ ]: non-standard residue; d: D form. The star is where a group is joined. Phe(4-NO2) = N[CH](Cc1ccc([N+](=O)[O-])cc1)C(=O)O; Boc = CC(C)(C)OC(=O)*; OtBu = CC(C)(C)O*

How the values were obtained:
Assay in all cases: DTP human tumour cell line panel, 48 h
CCRF-CEM leukemia = test system: CCRF-CEM leukemia
OVCAR-8 ovarian = test system: OVCAR-8 ovarian
HS 578T breast = test system: HS 578T breast
MDA-N = test system: MDA-N
OVCAR-3 ovarian = test system: OVCAR-3 ovarian
NCI/ADR-RES ovarian = test system: NCI/ADR-RES ovarian
UACC-257 melanoma = test system: UACC-257 melanoma
SK-MEL-5 melanoma = test system: SK-MEL-5 melanoma
T-47D breast = test system: T-47D breast
SK-MEL-2 melanoma = test system: SK-MEL-2 melanoma

| Structure (SMILES) | TGI (CCRF-CEM leukemia) [µM] | TGI (OVCAR-8 ovarian) [µM] | TGI (HS 578T breast) [µM] | TGI (MDA-N) [µM] | TGI (OVCAR-3 ovarian) [µM] | TGI (NCI/ADR-RES ovarian) [µM] | TGI (UACC-257 melanoma) [µM] | TGI (SK-MEL-5 melanoma) [µM] | TGI (T-47D breast) [µM] | TGI (SK-MEL-2 melanoma) [µM] |
| --- | --- | --- | --- | --- | --- | --- | --- | --- | --- | --- |
| N#Cc1nnc2c3c(-c4ccc(Cl)cc4)c(C#N)c(=O)[nH]c3nn2c1N | > 100 | 14 | 10.8 | 13.4 | 8.08 | 54.9 | 38.5 | 19.1 | 3.97 | 26.9 |
| COC(=O)C(Cc1ccc([N+](=O)[O-])cc1)NC(=O)C(CC(=O)OC(C)(C)C)NC(=O)OC(C)(C)C (stereo not given) (Boc-Asp(OtBu)-[Phe(4-NO2)]-OMe; configuration not given here) | > 100 | > 100 | 40.6 | > 100 | > 100 | > 100 | > 100 | > 100 | > 100 | > 100 |
| CC(C)[Si]1(C(C)C)OCC2OC(n3cnc4c(N)ncnc43)C(N)C2O[Si](C(C)C)(C(C)C)O1 (stereo not given) | > 71.6 | 25.1 | 44.5 | 24.3 | 20.6 | 20.7 | 32.4 | 9.01 | 30.5 | 24.6 |
| Clc1ncc(C(Cl)(Cl)Cl)nc1-c1ccccc1 | > 100 | 7.16 | 6.95 | 3.82 | 3.1 | 57.7 | 4.76 | 26.4 | 4.1 | 5.04 |
| CSc1nc(Br)nc2c1ncn2C1CC(Oc2ccc(C)cc2)C(COc2ccc(C)cc2)O1 (stereo not given) | > 100 | > 100 | 65.5 | > 100 | > 100 | > 100 | > 100 | > 100 | > 100 | > 100 |
| COC(=O)CCc1ccc2c(c1)CC1(C2)Cc2ccc(CCC(=O)OC)cc2C1 | 97.1 | > 100 | > 100 | > 100 | > 100 | > 100 | > 100 | 57.7 | > 100 | > 100 |
| BrCC[P+](c1ccccc1)(c1ccccc1)c1ccccc1 | 12.2 | 21.9 | 50.5 | 7.59 | 11.7 | 27.5 | 16.5 | 26.3 | 5.17 | 16.7 |
| O=C1O/C(=C\c2ccc(O)cc2)C(c2ccc(O)c(Cl)c2)=C1Br | 32.8 | 73.8 | 59.1 | > 100 | 21.1 | 65.4 | 26.8 | 25.9 | 62.9 | 28.5 |
| CN(C)CCn1c(=O)c2ccc(NCCNCCO)c3c(=O)c4cc(O)ccc4n(c1=O)c23 | 2.05 | 7.47 | 11.4 | 7.49 | 19.3 | > 100 | 19.2 | 5.22 | 13.3 | 6.85 |
| CCCCC(=C=C1CCCCC1O)C1CCCN1C(=O)OC(C)(C)C (stereo not given) | 35 | 34.6 | 41 | 30 | 29.1 | 30.6 | 29.4 | 30.9 | 29.8 | 30 |
| COC(=O)c1ccc(OCc2ccc3nc(-c4ccccc4)c(Cl)nc3c2)cc1 | > 100 | > 100 | 99.4 | > 100 | > 100 | > 100 | > 100 | > 100 | > 100 | > 100 |
| COc1cc2c(cc1OC)C1Cc3ccccc3CN1CCC2 (stereo not given) | > 100 | > 100 | > 100 | > 100 | > 100 | > 100 | > 100 | > 100 | > 100 | > 100 |
| c1ccc(COc2ncccc2C2SCCCS2)cc1 | > 100 | > 100 | > 100 | > 100 | > 100 | > 100 | > 100 | > 100 | > 100 | > 100 |
| CSC1(SC)CCCCCCCCCCC1 | 48.6 | > 100 | > 100 | > 100 | 72.7 | > 100 | 74 | > 100 | 73.3 | > 100 |
| CN(C)CCNc1nc2ccccc2c2c1C(=O)c1ccccc1-2 | 4.05 | 2.26 | 24.3 | 1.39 | 8.4 | 2.06 | 3.7 | 1.92 | 4.12 | 1.55 |
| O=C(O)c1ccccc1-c1ccccc1C(=O)c1ccccc1 | > 100 | > 100 | > 100 | > 100 | > 100 | > 100 | > 100 | > 100 | > 100 | > 100 |
